Test results: paper PMC11434739, “CAVPENET Peptide Inhibits Prostate Cancer Cells Proliferation and Migration through PP1γ-Dependent Inhibition of AKT Signaling” (Pharmaceutics, 2024)
Where a SMILES comes first, the peptide text is derived from it.

What was measured:
PC-3 cells = assay: Microscopic evaluation of cellular uptake (live-cell imaging); format: cell-based, Human; details: TAMRA-labeled bioportide 5 µM, 1 h, 37 °C, 5% CO2, phenol red-free RPMI-1640, live-cell fluorescence imaging (EVOS M5000), 3 independent experiments
Experimental: (§1) To evaluate the intracellular accumulation of bioportides, PC-3 and LnCaP cells were seeded in a 24-well plate (6.00 × 10^4 and 7.50 × 10^4 cells/well, respectively) and incubated for 24 h at 37 °C under a 5% CO2 atmosphere. After washing cells with phosphate buffered saline (PBS-1×), the growth medium was exchanged for phenol red-free RPMI-1640 medium containing 5µM of TAMRA-labeled CAVPENET or CAVPENET control and incubated for 1 h. After the incubation time, the cells were washed in phenol red-free RPMI-1640 medium and observed by EVOS^TM M5000 Imaging, and photos were obtained. Live-cell imaging was used to avoid fixation artifacts. Untreated cells were included as background reading.
(§2) Figure 1 Translocation of CAVPENET control and CAVPENET bioportides into (A) PC-3 and (B) LnCaP cells. PCa cells (PC-3 and LnCaP) were incubated with TAMRA-labeled bioportides (5 µM) for 1 h at 37 °C and 5% CO2 atmosphere. Representative images from 3 independent experiments are represented. DIC: differential interference contrast. Scale bar: 150 μm.

LnCaP cells = assay: as above; format: cell-based, Human; details: TAMRA-labeled bioportide 5 µM, 1 h, 37 °C, 5% CO2, phenol red-free RPMI-1640, live-cell fluorescence imaging (EVOS M5000), 3 independent experiments
Experimental: as §1, §2

cancer cells = details: cited from earlier work; for cancer cell apoptosis: cancer cells
Experimental: Targeting protein phosphorylation has long been explored as a strategy for cancer treatment. For instance, several kinase inhibitors have been approved by the FDA as anticancer therapies. In the context of phosphatases, targeting the PP1 active site was one of the earliest proposed approaches for anticancer therapeutic development. The potential therapeutic effect of PP1 inhibitors tautomycin and calyculin A was evaluated in cancer cells.

[1] = test system: several types of cells, including different tumor cell lines; details: cited from earlier work
[2] = phase II clinical trial; cited from earlier work
Description: Despite the apparent anticancer role of CPT1, by reducing the availability of fatty acids, excess CPT1 seems to support PCa cell proliferation by an ROS-mediated stress phenotype. Moreover, a CPT1 knockout was associated with inhibition of PCa cell invasion, becoming an important therapeutic target for PCa. In this context, different compounds have been produced to target this protein [52]. […] Alternatively, ...

Compound	cellular internalization (PC-3 cells)	cellular internalization (LnCaP cells)	cancer cell apoptosis (cancer cells)	toxic effects (cancer cells)	further results
CC[C@H](C)[C@H](NC(=O)[C@H](CCCCN)NC(=O)[C@@H](NC(=O)[C@@H](N)C(C)C)C(C)C)C(=O)N[C@@H](CC(=O)O)C(=O)N[C@@H](Cc1ccccc1)C(=O)N[C@@H](CCC(=O)O)C(=O)N[C@@H](CC(=O)O)C(=O)N[C@@H](CCCNC(=N)N)C(=O)N[C@@H](CCC(N)=O)C(=O)N[C@H](C(=O)N[C@@H](CCCCN)C(=O)N[C@H](C(=O)N[C@@H](Cc1c[nH]c2ccccc12)C(=O)N[C@@H](Cc1ccccc1)C(=O)N[C@@H](CCC(N)=O)C(=O)N[C@@H](CC(N)=O)C(=O)N[C@@H](CCCNC(=N)N)C(=O)N[C@@H](CCCNC(=N)N)C(=O)N[C@@H](CCSC)C(=O)N[C@@H](CCCCN)C(=O)N[C@@H](Cc1c[nH]c2ccccc12)C(=O)N[C@@H](CCCCN)C(=O)N[C@@H](CCCCN)C(N)=O)[C@@H](C)CC)[C@@H](C)CC [CAVPENET] (H-VVKIDFEDRQIKIWFQNRRMKWKK-NH2)	demonstrated cellular internalization	demonstrated cellular internalization	–	–	–
CO[C@H]([C@H](O)CC(=O)[C@@H](C)[C@@H](O)CC[C@@H](C)[C@@H]1O[C@]2(CC[C@@H](C)[C@H](CC[C@H](C)C(C)=O)O2)CC[C@@H]1C)[C@H](OC(=O)C[C@@H](O)C1=C(C)C(=O)OC1=O)C(C)C [tautomycin]	–	–	effectiveness in causing cancer cell apoptosis	significant toxic effects	–
RQIKIWFQNRRMKWKK [Penetratin]	–	–	–	–	toxic effects in cells [1]: absence of toxic effects
CC[C@H](C)[C@H](NC(=O)[C@H](Cc1ccccc1)NC(=O)[C@H](CC(=O)O)NC(=O)[C@@H](NC(=O)[C@@H](N)C(C)C)C(C)C)C(=O)N[C@@H](CCCCN)C(=O)N[C@@H](CCC(=O)O)C(=O)N[C@@H](CC(=O)O)C(=O)N[C@@H](CCCNC(=N)N)C(=O)N[C@@H](CCC(N)=O)C(=O)N[C@H](C(=O)N[C@@H](CCCCN)C(=O)N[C@H](C(=O)N[C@@H](Cc1c[nH]c2ccccc12)C(=O)N[C@@H](Cc1ccccc1)C(=O)N[C@@H](CCC(N)=O)C(=O)N[C@@H](CC(N)=O)C(=O)N[C@@H](CCCNC(=N)N)C(=O)N[C@@H](CCCNC(=N)N)C(=O)N[C@@H](CCSC)C(=O)N[C@@H](CCCCN)C(=O)N[C@@H](Cc1c[nH]c2ccccc12)C(=O)N[C@@H](CCCCN)C(=O)N[C@@H](CCCCN)C(N)=O)[C@@H](C)CC)[C@@H](C)CC [CAVPENET control] (H-VVDFIKEDRQIKIWFQNRRMKWKK-NH2)	demonstrated cellular internalization	demonstrated cellular internalization	–	–	–
CCOC(=O)[C@@]1(CCCCCCOc2ccc(Cl)cc2)CO1 [Etomoxir]	–	–	–	–	hepatotoxicity [2]: hepatotoxicity hampered definitive testing
COC[C@@H]([C@H](O)[C@H](O)C(=O)NCC[C@H](C)c1nc(/C=C/C[C@@H]2O[C@]3(C[C@@H](O)[C@@H]2C)O[C@H]([C@H](C[C@H](O)[C@H](C)[C@H](O)[C@H](C)/C=C(C)/C(C)=C/C=C/C(C)=C\C#N)OC)[C@H](OP(=O)(O)O)C3(C)C)co1)N(C)C [calyculin A]	–	–	effectiveness in causing cancer cell apoptosis	significant toxic effects	–
